Data set [1] in a line: Drug release study of coated stents in PBS (UV spectroscopy at 243 nm). It counts as physicochemical. The following applies: approx. 3 cm coated silicone stents, room temperature, 24-hour intervals. Here is the method:
Drug release studies were then performed to determine the amount of halofuginone released by the coated stents, and the timing of drug release. Stents approximately 3 cm in length were coated with halofuginone using our proprietary technique. These stents were then placed in PBS solution at room temperature for 24-hour intervals. After each 24-hour interval, the stents were placed in a new PBS solution, and the previous solution was analyzed for halofuginone concentration using UV spectroscopy (absorption at 243 nm). This process was continued daily until the amount of halofuginone in the PBS dropped to immeasurable levels.

For data set [2] the following is noted: rat, in vivo. The protocol: HF Analysis in Local Tissues and Serum (in Rat): The tissue specimens were morcellated, incubated for 24 hours in 40 mL of PBS, centrifuged, and a sample was taken for HF concentration analysis via spectrophotometry. Blood was also drawn (1 mL) from the heart post-mortem, added to 5 mL of PBS, centrifuged, and the serum analyzed for HF concentration via spectrophotometry.

A further data set deals with ureter and urethra. The following applies: orally administered and locally injected; cited from earlier work.
The conditions of data set [3]: oral doses of up to 3.5 mg/day; cited from earlier work.

On to `O=C(CC1NCCCC1O)Cn1cnc2cc(Br)c(Cl)cc2c1=O` (centres unmarked) [halofuginone, 7-bromo-6-chloro-3-[3-(3-hydroxy-2-piperidinyl)-2-oxopropyl]-4(3H)], for which, in data set [1], the “duration of sustained release of halofuginone from the stents” value was “approximately 4 days” and the release profile result is “large burst release the first 24 hours”. The “difference between HF levels in serum vs penile tissue” value in data set [2] is on record as “almost a ten-fold difference”. The “collagen deposition and stricture formation” value with ureter and urethra is “prevent collagen deposition and stricture formation”. In data set [3], the tolerability entry is listed as “minimal ill effects”.

Values taken from US20090028920A1, “UROLOGICAL DEVICES INCORPORATING COLLAGEN INHIBITORS” (Wake Forest University Health Sciences, priority 2006, published 2009).
